Eight molecules from patent US10982109B2, “Two-component printable conductive composition” (PRINTCB LTD., priority 2018, dated 2021) can be followed below.

The nature of data set [1]: Viscosity of the mixed composition (Brookfield digital viscometer). Type of data set: physicochemical. Particulars: for Viscosity of the mixed composition: acid replacing citric acid in activated flux of Example 1, relative scale; for Viscosity trend versus composition without stabilizing agent: time following mixing.
A short description of data set [2]: Stability / pot life of the mixed composition held at room temperature. Particulars: in fluxing component of the two-component composition.
Method: The two components were mixed at a proportion of 3.6:1 (by weight). The mixed composition was held at room temperature and its viscosity was measured hourly by Brookfield digital viscometer. Following each viscosity measurement, a line was printed on a glass substrate, the line being 50 mm long, 2 mm wide, and 40 μm thick. The printed ink was then sintered in a forced-air oven at 150° C. and the resistance of the obtained printed line was measured.

On to `O=C(O)/C=C/C(=O)O` [Fumaric, fumaric acid], for which the “Viscosity of the mixed composition” value in data set [1] was found to be 1.
For the molecule `O=C(O)C(=O)O` [Oxalic, Oxalic acid], in data set [1], the “Viscosity behaviour at room temperature following mixing” value is reported as “increased within a few minutes such that it was not suitable for printing” and the “Viscosity of the mixed composition” value was 1.
`CCCCCCCCCCCCS` [dodecanethiol]: in data set [1], the “Viscosity trend versus composition without stabilizing agent” value is “smaller viscosity increase”.
In the case of `O=C(O)C(O)C(O)C(=O)O` (stereo not shown) [Tartaric, tartaric acid], the “Viscosity of the mixed composition” value in data set [1] is 5.
Consider `CCCCCCCCS` [octanethiol], for which, in data set [2], the “Effect of the stabilizing agent on pot life” value is “extend the pot life”. In data set [1], the “Viscosity trend versus composition without stabilizing agent” value is “smaller viscosity increase”.
For `NC(N)=S` [thiourea], the “Effect of the stabilizing agent on pot life” value in data set [2] is given as “extending the pot life”.
Take `CC(=O)O` [Acetic, acetic acid]: in data set [1], the “Viscosity of the mixed composition” value was found to be 5.
`O=C(O)/C=C\C(=O)O` [Maleic, maleic acid]: the “Viscosity of the mixed composition” value in data set [1] was 5.
